Experimental data from paper PMC13211308, “Chemical genetics reveals Leishmania KKT2 and CRK9 kinase activity is required for cell cycle progression” (PLOS Pathogens, 2026).

Molecular target: T1, rCLK1 (recombinant CLK1, KKT10) (Leishmania mexicana, UniProt E9AMP2)
T1 construct: gene LMXM_09_0400
T1 sequence (E9AMP2 1-422): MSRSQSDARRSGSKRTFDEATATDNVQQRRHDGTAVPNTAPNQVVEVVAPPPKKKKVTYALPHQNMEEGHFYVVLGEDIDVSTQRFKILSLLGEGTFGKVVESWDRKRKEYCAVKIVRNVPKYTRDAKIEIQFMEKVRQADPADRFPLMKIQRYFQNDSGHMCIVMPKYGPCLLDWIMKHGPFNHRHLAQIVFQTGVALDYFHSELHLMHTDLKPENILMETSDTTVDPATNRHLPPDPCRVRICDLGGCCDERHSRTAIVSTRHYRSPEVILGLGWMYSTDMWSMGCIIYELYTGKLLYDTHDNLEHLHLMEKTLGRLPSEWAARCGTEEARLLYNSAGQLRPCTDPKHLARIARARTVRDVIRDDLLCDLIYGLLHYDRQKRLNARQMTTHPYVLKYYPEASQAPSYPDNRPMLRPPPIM
Details: 1 mM ATP, 5 mM MgCl2, 1 mM MnCl2, pH 7.5, 2 h, 37 °C

Nc1ncnc2c1ncn2[C@@H]1O[C@H](COP(=O)(O)OP(=O)(O)OP(=O)(O)O)[C@@H](O)[C@H]1O [ATP]
autophosphorylation by intact mass spectrometry: Following incubation with ATP, rCLK1 exhibited three distinct phosphorylation states
